{"source": "patent US7910723B2", "about": "“IG20 splice variants therapeutics for cancer” (The Board of Trustees of the University of Illinois, priority 2006, dated 2011)", "type_in_all_cases": "cell-based", "key": {"HeLa cells [1]": {"system": "HeLa cells", "assay": "Cell growth: trypan blue-negative viable cell count, HeLa", "conditions": "relative to controls", "procedure": "Cell Growth. 24 hours post-transduction, HeLa cells were plated as described in materials and methods. Cells were then harvested and viable cells (trypan blue negative cells) were counted on indicated days. Data represent Mean+SD of triplicates. Cell proliferation. 24 hours post-transduction HeLa cells were stained with CF SE-red (SNARF-1 carboxylic acid, acetate, succinimidyl ester), harvested on indicated days and evaluated for CFSE-dilution by FACS. The numbers on the histograms indicate geometric peak mean intensities of CFSE staining in the transduced cells. Cell survival. Crystal violet staining of cells surviving upon IG20 down-modulation after transduction shown C-G.\n(§1) In order to assess the effects on cell growth and proliferation, various shRNA-expressing viable cells were counted. […] The cells were stained with CFSE and cell division was monitored. […] Further confirmation was obtained by plating equal numbers of HeLa cells expressing various shRNAs and determining the number and size of colonies after 12 days.\nCell Proliferation. 24 hours post-transduction, 5×10^5 HeLa or 8×10^5 PA-1 cells were plated into six-well plates. Every other day, cells were collected, washed and stained with trypan blue, and trypan blue-negative viable cells were counted."}, "HeLa cells [2]": {"system": "HeLa cells", "assay": "Crystal violet staining, colony formation, HeLa", "conditions": "after 12 days", "procedure": "as §1\nCrystal Violet Staining. 5×10^5 HeLa and 8×10^5 PA-1 cells were plated into six-well plates. 24 hours later cells were treated with different shRNA-expressing lentiviruses for 4 hours. Cells were washed and replenished with fresh warm medium. Twelve days later, cells were fixed in ice-cold methanol and stained with crystal violet to assess viability and colony formation."}, "caspase-8": {"system": "caspase-8", "assay": "Immunoblot of caspase-8 processing in transduced PA-1 cells", "conditions": "PA-1, 48 h post-transduction", "procedure": "To gain insight into the mechanism underlying MADD-mediated cell survival, whether caspases were activated upon abrogation of MADD expression examined. HeLa cells and PA-1 cells were collected 48 h post-transduction and probed for caspase-8 and FADD, which are components of the DISC. […] TRAIL treatment results in recruitment of procaspase-8 to the receptors followed by its cleavage resulting in its activation. The cleaved intermediate fragments (p43/p41) and the catalytically active subunits of caspase-8 (p18) were detected upon TRAIL treatment. Caspase-8 is the initiator caspase that can cause activation of the effector caspase-3. A decrease in the amount of pro-caspase-3 indicates its cleavage to form active caspase-3 only in MADD-depleted cells.\nImmunoblotting. The membranes were blocked in 5% non-fat dry milk in PBS-Tween (PBS with 0.05% Tween 20) for 1 hour. Primary antibodies were used at a concentration of 1 μg/mL and the secondary antibodies were used at a 1:10000 concentration. The blots were developed by enhanced chemiluminescence according to the manufacturer's protocol (Pierce Biotechnology Inc., Rockford, Ill.)."}, "MADD": {"system": "MADD", "assay": "Phosphorylation of exogenous wtMADD in HEK293 cells (anti-phospho antibodies)", "conditions": "HEK293 transfected with wtMADD; LY 10 μM 1 h, IGF-1 150 ng/ml 20 minutes", "procedure": "(A) In vitro phosphorylation of rMADD by Akt. GST-wtMADD or -MADD mutants were expressed in bacteria, purified, and then incubated with rAkt and γ[^32P] ATP. After 1 h incubation at 30° C., the products were resolved on SDS-PAGE and ^32P-labeled proteins were visualized by autoradiography. (B) MADD is labeled by [^32P]orthophosphate in vivo. HEK293 cells were transfected with wtMADD or MADD mutant constructs. Twenty-four hours after transfection cells were incubated with 0.3 mCi/ml [32P]orthophosphate for 6 h. MADD was immunoprecipitated with an anti-YFP antibody. The precipitated MADD was separated by SDS-PAGE, transferred to a nitrocellulose membrane, and subjected to autoradiography. Loaded MADD was visualized by staining the same membrane with an anti-YFP antibody. (C) HEK293 cells were transfected with cDNAs for wtMADD or MADD mutants and. 36 h later the cells were harvested for immunoblotting using the anti-phospho-S-70, -T-173 or -T-1041 antibodies. An anti-YFP antibody was used to detect exogenous MADD. (D) HEK293 cells were transfected with wtMADD and 24 hours later cells were serum starved for 20 h. Subsequently, they were treated with LY (10 μM) for 1 h and/or IGF-1 (150 ng/ml) for 20 minutes. The cell lysates were immunoblotted and probed with anti phospho-specific antibodies or an anti-YFP antibody. […]"}}, "data": [{"compound": "13L-shRNA: shRNA targeting exon 13L (IG20, MADD), 5′ CGGCGAATCTATGACAATC-3′ (SEQ ID NO: 4)", "values": [{"measurement": "Numbers of viable cells", "setting": "HeLa cells [1]", "value": "significant decrease in the numbers of viable cells"}, {"measurement": "Number of colonies", "setting": "HeLa cells [2]", "value": "significantly fewer colonies"}, {"measurement": "Size of colonies", "setting": "HeLa cells [2]", "value": "comparable to that of controls"}, {"measurement": "Intermediate active-caspase-8 proteins (p43/41)", "setting": "caspase-8", "value": "higher amounts of the intermediate active-caspase-8 proteins (p43/41)"}]}, {"compound": "O=c1cc(N2CCOCC2)oc2c(-c3ccccc3)cccc12", "note": "[LY]", "values": [{"measurement": "S70, T173 and T1041 phosphorylation levels of MADD", "setting": "MADD", "value": "decreased"}]}]}
